The structures appear in SMILES notation. A value given as a limit tells only on which side of the number the result lay.

The first assay has as its system T47D cells expressing mutant PI3Ka (H1047R). Description: In vitro cell proliferation, T47D cells (CellTiter-Glo). Type of assay: cell-based. As to conditions: Homo sapiens, T47D, 72 h, inhibition of proliferation, read-out: Avg T-47D EC50. The method, then: (§1) In Vitro Cell Proliferation: Determination of EC50 Values for Inhibition of Proliferation in T47D Cells Expressing Mutant PI3Ka (H1047R) Mutation and SKBR3 Cells Express WT PI3Ka.
(§2) T47D or SKBR3 cells were trypsinized, resuspended in culture media and seeded onto assay ready plates. T47D culture media consisted of RPMI, 10% FBS and Insulin (0.2 units/mL). SKBR3 culture media consisted of McCoys 5a and 10% FBS. Cells were seeded at a density of 1,500 cells/well and dispensed in 50 μl onto 384 well assay ready plates (Corning, 89089-790). Assay ready plates had previously been stamped with 10-point dilutions of compounds of interest, as well as controls. The Echo655 is used to stamp plates at 40 nL of compound or DMSO. Cells were grown for 72 hours at 37° Celsius and 5% CO2. After 72 hours, cells were equilibrated at room temperature for 15 minutes. 30 μL of CellTiter-Glo reagent is added to the plate, which is then shaken for 30 minutes at temperature at 300-500 rpm. Cells are then read on an Envision plate reader. The percentage of inhibition of proliferation was calculated using the following formula: % Inhibition=100×(LumD−Lumsample)/(LumD−Lumlnh), where D is obtained from cells treated with 0.1% DMSO only; lnh is obtained from cells treated with 10 uM Alpelisib. The effective concentration achieving 50% inhibition of proliferation (EC50) is calculated by fitting the Curve using Xlfit (v5.3.1.3), equation 201: Y=Bottom+(Top−Bottom)/(1+10^((LogEC50−X)*HillSlope)).
(In general: ATP-based viability assays read luminescence as a measure of living cells.)
The term EC50 denotes the concentration at which the effect is half-maximal. Consider `Cc1cc(C(C)Nc2ccccc2C(=O)O)c2cc(N3C[C@H]4CCCC[C@@H]4C3)n(C)c(=O)c2c1` (single isomer, unassigned) [Example 101], for which the EC50 is more than 15 µM.

Still in this assay, the particulars now being: inhibition of proliferation, 72 hours, read-out: Avg T-47D EC50.
For `Cc1cc(C(C)Nc2ccccc2C(=O)O)c2cc(N3CC(c4ccccc4)C3)n(C)c(=O)c2c1` (single isomer, unassigned) [Example 77], the EC50 is 0.5 to 2 µM.
On the same count and under the same terms, to `Cc1cc(C(C)Nc2ccccc2C(=O)O)c2cc(N3CC(Cl)C3)n(C)c(=O)c2c1` (single isomer, unassigned) [Example 78] belongs 2 to 15 µM.
On the same count and under the same terms, to `Cc1cc(C(C)Nc2ccccc2C(=O)O)c2cc(N3CC(Cl)C3)n(C)c(=O)c2c1` (single isomer, unassigned) [Example 79] belongs 0.001 to 0.5 µM.
Same read-out and setting: to `Cc1cc(C(C)Nc2ccccc2C(=O)O)c2cc(N3CC4(C3)CC(F)(F)C4)n(C)c(=O)c2c1` (single isomer, unassigned) [Example 80] belongs more than 15 µM.
`Cc1cc(C(C)Nc2ccccc2C(=O)O)c2cc(N3CC4(C3)CC(F)(F)C4)n(C)c(=O)c2c1` (single isomer, unassigned) [Example 81]: the EC50 is 0.5 to 2 µM.
`Cc1cc(C(C)Nc2ccccc2C(=O)O)c2cc(N3CC4(CC(C(F)(F)F)C4)C3)n(C)c(=O)c2c1` (single isomer, unassigned) [Example 82]: the EC50 fell in the range of 0.5 to 2 µM.
On the same count and under the same terms, to `Cc1cc(C(C)Nc2ccccc2C(=O)O)c2cc(N3CC4(CC(C(F)(F)F)C4)C3)n(C)c(=O)c2c1` (single isomer, unassigned) [Example 83] belongs 2 to 15 µM.
Same read-out and setting: the value for `Cc1cc(C(C)Nc2ccccc2C(=O)O)c2cc(N3Cc4cccc(C(F)(F)F)c4C3)n(C)c(=O)c2c1` (single isomer, unassigned) [Example 92] was 0.5 to 2 µM.
Same read-out and setting: the value for `Cc1cc(C(C)Nc2ccccc2C(=O)O)c2cc(N3Cc4cccc(C(F)(F)F)c4C3)n(C)c(=O)c2c1` (single isomer, unassigned) [Example 93] was 2 to 15 µM.
As to `Cc1cc(C(C)Nc2ccccc2C(=O)O)c2cc(N3CCC4(CCN(CC(F)(F)F)C4)CC3)n(C)c(=O)c2c1` (single isomer, unassigned) [Example 96], the EC50 was in the range of 0.001 to 0.5 µM.

The next assay concerns SKBR3 cells express WT PI3Ka. The assay is described as follows: In vitro cell proliferation, SKBR3 cells (CellTiter-Glo). As to conditions: Homo sapiens, SK-BR-3, 72 h, inhibition of proliferation. Format: cell-based. The protocol:
as §1, §2
Regarding `Cc1cc(C(C)Nc2ccccc2C(=O)O)c2cc(N3CC(Cl)C3)n(C)c(=O)c2c1` (single isomer, unassigned) [Example 78], the EC50 was more than 15 µM.
Still for that read-out and setting: the value for `Cc1cc(C(C)Nc2ccccc2C(=O)O)c2cc(N3CC4(C3)CC(F)(F)C4)n(C)c(=O)c2c1` (single isomer, unassigned) [Example 80] was more than 15 µM.
Same read-out and setting: the value for `Cc1cc(C(C)Nc2ccccc2C(=O)O)c2cc(N3CC4(CC(C(F)(F)F)C4)C3)n(C)c(=O)c2c1` (single isomer, unassigned) [Example 82] was more than 15 µM; that for `Cc1cc(C(C)Nc2ccccc2C(=O)O)c2cc(N3Cc4cccc(C(F)(F)F)c4C3)n(C)c(=O)c2c1` (single isomer, unassigned) [Example 92] was more than 15 µM; that for `Cc1cc(C(C)Nc2ccccc2C(=O)O)c2cc(N3C[C@H]4CCCC[C@@H]4C3)n(C)c(=O)c2c1` (single isomer, unassigned) [Example 101] was more than 15 µM.

Staying with this assay, now noted: inhibition of proliferation, 72 hours.
With `Cc1cc(C(C)Nc2ccccc2C(=O)O)c2cc(N3CC(c4ccccc4)C3)n(C)c(=O)c2c1` (single isomer, unassigned) [Example 77], the EC50 was more than 15 µM.
On the same count and under the same terms, the value for `Cc1cc(C(C)Nc2ccccc2C(=O)O)c2cc(N3CC(Cl)C3)n(C)c(=O)c2c1` (single isomer, unassigned) [Example 79] was more than 15 µM; that for `Cc1cc(C(C)Nc2ccccc2C(=O)O)c2cc(N3CC4(C3)CC(F)(F)C4)n(C)c(=O)c2c1` (single isomer, unassigned) [Example 81] was more than 15 µM; that for `Cc1cc(C(C)Nc2ccccc2C(=O)O)c2cc(N3CC4(CC(C(F)(F)F)C4)C3)n(C)c(=O)c2c1` (single isomer, unassigned) [Example 83] was more than 15 µM.
`Cc1cc(C(C)Nc2ccccc2C(=O)O)c2cc(N3Cc4cccc(C(F)(F)F)c4C3)n(C)c(=O)c2c1` (single isomer, unassigned) [Example 93]: the EC50 was more than 15 µM.
The same measure, in the same setting: the value for `Cc1cc(C(C)Nc2ccccc2C(=O)O)c2cc(N3CCC4(CCN(CC(F)(F)F)C4)CC3)n(C)c(=O)c2c1` (single isomer, unassigned) [Example 96] was 2 to 15 µM.

For a further assay, the system named is phosphorylation of AKT (pAKT) in SKBR3 cells express WT PI3Ka. Description: In vitro cell pAKT (Ser473) HTRF, SKBR3 cells. Format: cell-based. As to conditions: Homo sapiens, SK-BR-3, 6 h, cellular pAKT. The protocol:
(§3) In Vitro Cell pAKT: Determination of IC50 Values for Inhibition of Phosphorylation of AKT (pAKT) in T47D Cells Expressing Mutant PI3Ka (H1047R) Mutation and SKBR3 Cells Express WT PI3Ka.
(§4) T47D or SKBR3 cells were trypsinized, resuspended in culture media and seeded onto assay ready plates. T47D culture media consisted of RPMI, 10% FBS and Insulin (0.2 units/mL). SKBR3 culture media consisted of McCoy's 5a and 10% FBS. Cells were seeded at a density of 5000 cells/well and dispensed in 12.5 μL onto 384 well assay ready plates (Perkin Elmer, 6008238)). Assay ready plates had previously been stamped with 10-point dilutions of compounds of interest, as well as controls. The Echo655 is used to stamp plates at 12.5 nL of compound or DMSO. Cells were grown for 6 hours at 37° Celsius and 5% CO2. After 6 hours, 4 μL of Lysis buffer reagent was added to the plate, which was then centrifuged for 1 minute at 1000 rpm. Then the plate was incubated at room temperature for 30 minutes. After 30 minutes, 4 μL of antibody mix containing Eu Cryptate, d2 Cryptate, and detection buffer, was added to the plate. The plate was centrifuged for 1 minute at 1000 rpm and then incubated overnight at room temperature. The plate was read on an Envision plate reader using the HTRF protocol. The percentage of inhibition of AKT phosphorylation was calculated using the following formula: % Inhibition=100×(pAKTHC−pAKTSample)/(pAKTHC−pAKTLC)), where pAKTHC is obtained from cells treated with 0.1% DMSO only; PAKTLC is obtained from cells treated with 10 uM Alpelisib. The IC50 (concentration achieving 50% inhibition of pAKT) is calculated by fitting the Curve using XIfit (v5.3.1.3), equation 201: Y=Bottom+(Top−Bottom)/(1+10^((LogIC50−X)*HillSlope)).
A general note: Time-resolved FRET reads energy transfer from a long-lived donor to a nearby acceptor.
By IC50 is commonly meant the concentration that inhibits the measured activity by half. In turn, `Cc1cc(C(C)Nc2ccccc2C(=O)O)c2cc(N3CC(Cl)C3)n(C)c(=O)c2c1` (single isomer, unassigned) [Example 78] registered an IC50 of more than 15 µM.
Same read-out and setting: the value for `Cc1cc(C(C)Nc2ccccc2C(=O)O)c2cc(N3CC4(C3)CC(F)(F)C4)n(C)c(=O)c2c1` (single isomer, unassigned) [Example 80] was more than 15 µM; that for `Cc1cc(C(C)Nc2ccccc2C(=O)O)c2cc(N3CC4(CC(C(F)(F)F)C4)C3)n(C)c(=O)c2c1` (single isomer, unassigned) [Example 82] was more than 15 µM; that for `Cc1cc(C(C)Nc2ccccc2C(=O)O)c2cc(N3Cc4cccc(C(F)(F)F)c4C3)n(C)c(=O)c2c1` (single isomer, unassigned) [Example 92] was more than 15 µM.
On the same count and under the same terms, the value for `Cc1cc(C(C)Nc2ccccc2C(=O)O)c2cc(N3CCC4(CCN(CC(F)(F)F)C4)CC3)n(C)c(=O)c2c1` (single isomer, unassigned) [Example 96] was more than 15 µM; that for `Cc1cc(C(C)Nc2ccccc2C(=O)O)c2cc(N3C[C@H]4CCCC[C@@H]4C3)n(C)c(=O)c2c1` (single isomer, unassigned) [Example 101] was more than 15 µM.

Still in this assay, the particulars now being: cellular pAKT, 6 hours.
On to `Cc1cc(C(C)Nc2ccccc2C(=O)O)c2cc(N3CC(c4ccccc4)C3)n(C)c(=O)c2c1` (single isomer, unassigned) [Example 77], for which the half-inhibitory concentration (IC50) was more than 15 µM.
The same measure, in the same setting: to `Cc1cc(C(C)Nc2ccccc2C(=O)O)c2cc(N3CC(Cl)C3)n(C)c(=O)c2c1` (single isomer, unassigned) [Example 79] belongs more than 15 µM; to `Cc1cc(C(C)Nc2ccccc2C(=O)O)c2cc(N3CC4(C3)CC(F)(F)C4)n(C)c(=O)c2c1` (single isomer, unassigned) [Example 81], more than 15 µM; to `Cc1cc(C(C)Nc2ccccc2C(=O)O)c2cc(N3CC4(CC(C(F)(F)F)C4)C3)n(C)c(=O)c2c1` (single isomer, unassigned) [Example 83], more than 15 µM.
Same read-out and setting: to `Cc1cc(C(C)Nc2ccccc2C(=O)O)c2cc(N3Cc4cccc(C(F)(F)F)c4C3)n(C)c(=O)c2c1` (single isomer, unassigned) [Example 93] belongs more than 15 µM.

The test system of the next assay is phosphorylation of AKT (pAKT) in T47D cells expressing mutant PI3Ka (H1047R). Description: In vitro cell pAKT (Ser473) HTRF, T47D cells. As to conditions: Homo sapiens, T47D, 6 h, cellular pAKT, T47D cells, mutant PI3Ka (H1047R), 6 hours; read-out: Avg T-47D IC50. Type of assay: cell-based. The protocol:
as §3, §4
As for `Cc1cc(C(C)Nc2ccccc2C(=O)O)c2cc(N3C[C@H]4CCCC[C@@H]4C3)n(C)c(=O)c2c1` (single isomer, unassigned) [Example 101], the IC50 was more than 15 µM.

The same assay, now with this note: cellular pAKT, T47D cells, mutant PI3Ka (H1047R), 6 hours; read-out: Avg T-47D IC50.
As for `Cc1cc(C(C)Nc2ccccc2C(=O)O)c2cc(N3CC(c4ccccc4)C3)n(C)c(=O)c2c1` (single isomer, unassigned) [Example 77], the IC50 was in the range of 0.001 to 0.5 µM.
The same measure, in the same setting: to `Cc1cc(C(C)Nc2ccccc2C(=O)O)c2cc(N3CC(Cl)C3)n(C)c(=O)c2c1` (single isomer, unassigned) [Example 78] belongs more than 15 µM; to `Cc1cc(C(C)Nc2ccccc2C(=O)O)c2cc(N3CC(Cl)C3)n(C)c(=O)c2c1` (single isomer, unassigned) [Example 79], 0.001 to 0.5 µM.
Same read-out and setting: the value for `Cc1cc(C(C)Nc2ccccc2C(=O)O)c2cc(N3CC4(C3)CC(F)(F)C4)n(C)c(=O)c2c1` (single isomer, unassigned) [Example 80] was more than 15 µM; that for `Cc1cc(C(C)Nc2ccccc2C(=O)O)c2cc(N3CC4(C3)CC(F)(F)C4)n(C)c(=O)c2c1` (single isomer, unassigned) [Example 81] was 0.001 to 0.5 µM; that for `Cc1cc(C(C)Nc2ccccc2C(=O)O)c2cc(N3CC4(CC(C(F)(F)F)C4)C3)n(C)c(=O)c2c1` (single isomer, unassigned) [Example 82] was 0.001 to 0.5 µM.
The same measure, in the same setting: the value for `Cc1cc(C(C)Nc2ccccc2C(=O)O)c2cc(N3CC4(CC(C(F)(F)F)C4)C3)n(C)c(=O)c2c1` (single isomer, unassigned) [Example 83] was more than 15 µM.
In the case of `Cc1cc(C(C)Nc2ccccc2C(=O)O)c2cc(N3Cc4cccc(C(F)(F)F)c4C3)n(C)c(=O)c2c1` (single isomer, unassigned) [Example 92], the IC50 fell in the range of 0.001 to 0.5 µM.
`Cc1cc(C(C)Nc2ccccc2C(=O)O)c2cc(N3Cc4cccc(C(F)(F)F)c4C3)n(C)c(=O)c2c1` (single isomer, unassigned) [Example 93]: the IC50 was more than 15 µM.
Still for that read-out and setting: the value for `Cc1cc(C(C)Nc2ccccc2C(=O)O)c2cc(N3CCC4(CCN(CC(F)(F)F)C4)CC3)n(C)c(=O)c2c1` (single isomer, unassigned) [Example 96] was 0.001 to 0.5 µM.
